# According to patent US11160766B2, “Peritoneal therapeutic fluid” (OPTERION Health AG, priority 2015, dated 2021):
# Values joined by “and” are separate entries in the source; they are usually repeats but may differ in a detail not shown here. Identical values can stand only once.
# Key:
# [1] = test system: Human peritoneal mesothelial cells (HPMC); test: resazurin cell viability assay on HPMC exposed to PD solutions; type: cell-based; settings: for effect on cell viability in control medium: Medium control without cytotoxic stress, until Cmax (500 μM); for effect reducing cyto-toxicity of all three tested peritoneal dialysis solutions: Example 2 conclusion, PD solutions #1 to #3; for cell viability on Glucose based and on Icodextrin based PD-Solutions: summary of examples 1 to 4; for type of dialysis solution mainly improved: summary of example 4; for improvement of viability of HPMC cells (resazurin to resorufin conversion): Example 3, added 5 minutes in advance, triplicate
# Protocol: (§1) Human peritoneal mesothelial cells (HPMC) were purchased from Zen Bio Inc. and cultured in cell culture flasks using suppliers media. Near confluent HPMC were harvested by trypsinization, seeded into collagen-coated 96-well tissue culture plates (Corning) and allowed to adhere overnight. The medium was changed to twice diluted with dialysis solution for 48 up to 72 hours.
# Cell viability was established applying the promega resazurin assay, following the suppliers protocol. Living cells are metabolically active and are able to reduce the non-fluorescent dye resazurin to the strongly-fluorescent dye resorufin. The fluorescence output is proportional to the number of viable cells over a wide concentration range. This also allows the calculation of the proliferation rate for cells capable of consecutive cell division. […] For the dose-response relationship, relative viability was plotted against the test item concentrations.
# All assays were conducted in a duplex format using the same cell culture.
# Addition of selected BCAs of this invention partially reestablished reszurin to reorufin conversion, which is interpreted as a result of a decreased cytotoxicity, due to the application of the tested BCAs. Compounds were added at 9 dilutions (Cmax=500 μM) together with tested PD solutions or Medium control. Incubation was 48 hours.
# Addition of selected BCA resveratrol partially reestablished resazurin to reorufin conversion, in a triplicate assay, which is interpreted as a result of a decreased cytotoxicity, due to the application of the tested BCA. In this series, Resveratrol was added 5 minutes in advance to application of test-solutions, at 9 dilutions (Cmax=500 μM). Incubation was 72 hours.
# partially reestablished resazurin to reorufin conversion, or partly re-established intracellular ATP-level, which is interpreted as a result of a decreased cytotoxicity, due to the application of the tested BCA. Test items were tested at 3 replicates per concentration. All assays were conducted in a duplex format using the same cell culture. Incubation was 72 hours.
# [2] = test system: Human peritoneal mesothelial cells (HPMC); test: CTG assay, intra-cellular ATP level in HPMC exposed to PD solution; type: cell-based; settings: Example 4; PD-Solution #4; 72 hours
# Protocol: as §1
# In the case of Piceid, the intra-cellular ATP level was determined with the CTG assay. For this, media was completely removed from all wells by aspiration, 60 μl of CTG reagent was added to each well, and incubated for 5 min at RT while softly shaking (50 rpm). Using a Victor3 1420 Multilabel Counter, the emitted luminescence produced in the CTG assay was measured. For the dose-response relationship, absolute luminescence (background subtracted) was related to the negative (medium) control and relative viability values were plotted against the test item concentrations. For the dose-response relationship, absolute luminescence (background subtracted) was related to the negative (medium) control and relative viability values in presence of BCA were plotted against the BCA concentrations.
# partially reestablished resazurin to reorufin conversion, or partly re-established intracellular ATP-level, which is interpreted as a result of a decreased cytotoxicity, due to the application of the tested BCA. […]
# VEGF = test: peritoneal tissue VEGF (ELISA) in rats after chronic peritoneal dialysis; type: in vivo, Sprague-Dawley rats; settings: for VEGF concentration (pg/mL) in prot. prep., single animals: peritoneal tissue
# Protocol: Animal Studies have been carried out as described in Lee et al. 2012: Peritoneal access ports were inserted in male Sprague-Dawley rats. After one week, rats started to received peritoneal treatment: 10 rats receive once daily 20 ml of Sol #4, 10 rats received 20 ml of Sol #4 with addition of selected BCA (resveratrol), during 2 hour infusions. After 2 to 4 weeks, the abdomen was opened, the peritoneum was recovered and submitted to protein extraction. Tissue VEGF concentration was established by ELISA (Abcam Rat VEGF ELISA Kit, ab100787) on obtained protein preparations (pg/ml).
# [3] = concentration (solubility) after stirring at room temperature; type: physicochemical
# Protocol: Concentrations of BCA in the present invention are preferably measured after 1 hour stirring at room temperature (which is preferably 20-23° C., more preferably 22° C.), particularly if the BCA is a polyphenolic compound, a metabolite of a polyphenolic compound which is obtained by metabolization in the human or animal body, a salt of a polyphenolic compound, a glycoside of a polyphenolic compound, or derivative of these compounds. So, concentrations of said compound correspond to measured solubility after 1 hour stirring at room temperature. Concentration is measured in a PTF of the invention. So, BCA can be dissolved in water. Other ingredients of a PTF, which are mentioned in this description, are preferably present. If not specifically indicated, or if not specifically indicated otherwise, the time of stirring is one hour. In some cases, other stirring times are indicated, such as 12 hours.
# [4] = Example 4, PD-Solution #3, 72 hours, 3 replicates per concentration
# [5] = Example 4, PD-Solution #4, 72 hours, 3 replicates per concentration
# [6] = Example 2, PD-Solution #1, 48 hours, 9 dilutions, Cmax=500 μM
# [7] = Example 2, PD-Solution #2, 48 hours, 9 dilutions, Cmax=500 μM
structure (smiles),measurement,setting,value
Oc1cc(O)c2cc(O)c(-c3cc(O)c(O)c(O)c3)[o+]c2c1 [Delphinidin],improvement of cell viability of HPMC cells (resazurin to resorufin conversion),[1]; [4],up to 57%
Oc1cc(O)cc(/C=C/c2ccc(O)c(O)c2)c1 [Piceatannol],improvement of cell viability of HPMC cells (resazurin to resorufin conversion),[1]; [4],up to 44%
same,improvement of cell viability of HPMC cells (resazurin to resorufin conversion),[1]; [5],up to 40%
"OC[C@H]1O[C@@H](Oc2cc(O)cc(/C=C/c3ccc(O)cc3)c2)[C@H](O)[C@@H](O)[C@@H]1O [Piceid, resveratrol-3-O-β-mono-D-glucoside]",effect on cell viability in control medium,"[1]; Example 2, 48 hours",no significant effect
same,improvement of cell viability of HPMC cells (resazurin to resorufin conversion),[1]; [6],minor improvements
same,improvement of cell viability of HPMC cells (resazurin to resorufin conversion),[1]; [7],minor improvements
same,effect reducing cyto-toxicity of all three tested peritoneal dialysis solutions,[1]; 48 hours,minor effect
same,improvement of cell viability of HPMC cells (resazurin to resorufin conversion),[1]; [4],up to 32%
same,improvement of cell viability of HPMC cells (resazurin to resorufin conversion),[1]; [5],up to 17%
same,cell viability on Glucose based and on Icodextrin based PD-Solutions,[1],increased cell viability
same,improvement of viability of HPMC cells measured by ATP-level re-establishment,[2],51%
O=c1cc(-c2ccc(O)c(O)c2)oc2cc(O)cc(O)c12 [Luteolin],improvement of cell viability of HPMC cells (resazurin to resorufin conversion),[1]; [4],up to 56%
same,improvement of cell viability of HPMC cells (resazurin to resorufin conversion),[1]; [5],up to 21%
same,type of dialysis solution mainly improved,[1],mainly improved Icodextrin based dialysis solutions
"O=C(O)/C=C/c1ccc(O)c(O)c1 [Cafeic Acid, caffeic acid]",improvement of cell viability of HPMC cells (resazurin to resorufin conversion),[1]; [4],up to 32%
same,improvement of cell viability of HPMC cells (resazurin to resorufin conversion),[1]; [5],minor
same,type of dialysis solution mainly improved,[1],mainly improved Icodextrin based dialysis solutions
COc1cc(/C=C/c2ccc(O)cc2)cc(OC)c1 [Pterostilbene],improvement of cell viability of HPMC cells (resazurin to resorufin conversion),[1]; [4],183%
same,improvement of cell viability of HPMC cells (resazurin to resorufin conversion),[1]; [5],118%
"Oc1ccc(/C=C/c2cc(O)cc(O)c2)cc1 [Resveratrol, trans-3,5,4′-trihydroxystilbene]","VEGF concentration (pg/mL) in prot. prep., Average","VEGF; Sol #4 + 40 μM Resveratrol, 2 and 4 weeks combined, 10 rats",60.94 pg/mL
same,"VEGF concentration (pg/mL) in prot. prep., single animals","VEGF; Sol #4 + 40 μM Resveratrol, 2 weeks treatment",50.21 pg/mL and 39.99 pg/mL and 70.88 pg/mL and 77.84 pg/mL and 60.12 pg/mL
same,"VEGF concentration (pg/mL) in prot. prep., single animals","VEGF; Sol #4 + 40 μM Resveratrol, 4 weeks treatment",62.02 pg/mL and 63.71 pg/mL and 57.91 pg/mL and 68.45 pg/mL and 58.23 pg/mL
same,expression of VEGF in the peritoneum of standard PDF treated rats,"VEGF; addition to Sol #4, 2 to 4 weeks peritoneal dialysis",decreases expression of VEGF
same,effect on cell viability in control medium,"[1]; Example 2, 48 hours",no significant effect
same,improvement of cell viability of HPMC cells (resazurin to resorufin conversion),[1]; [6],up to 20%
same,improvement of cell viability of HPMC cells (resazurin to resorufin conversion),[1]; [7],up to 40%
same,improvement of cell viability of HPMC cells (resazurin to resorufin conversion),"[1]; Example 2, PD-Solution #3, 48 hours, 9 dilutions, Cmax=500 μM",up to 40%
same,effect reducing cyto-toxicity of all three tested peritoneal dialysis solutions,[1]; 48 hours,strong effect
same,improvement of viability of HPMC cells (resazurin to resorufin conversion),"[1]; PD-Solution #1, 72 hours, Cmax=500 μM",up to 84%
same,improvement of viability of HPMC cells (resazurin to resorufin conversion),"[1]; PD-Solution #2, 72 hours, Cmax=500 μM",up to 28%
same,improvement of viability of HPMC cells (resazurin to resorufin conversion),"[1]; PD-Solution #3, 72 hours, Cmax=500 μM",up to 105%
same,cell viability on Glucose based and on Icodextrin based PD-Solutions,[1],increased cell viability
same,concentration after 12 hours stirring,[3],above 24 mg/L
